Measured values: patent US9718821B2, “Pyridopyrimidinone inhibitors of kinases” (AbbVie Inc., priority 2012, dated 2017)

Each compound was assayed against T1, GST-tagged-Wee1 kinase (Homo sapiens, UniProt P30291) (assay: Wee1 time-resolved fluorescence equilibrium binding assay (displacement of Oregon Green-labeled ATP-competitive kinase probe)). Conditions: enzyme binding data; GST-tagged-Wee1 kinase 2 nM, fluorescent probe 300 nM, inhibitor 0.003 to 10 micromolar, 1 hour incubation; read-out: Wee-1 binding (Ki nM).
T1 construct: purchased Carnabio 05-177
Description: Wee1 kinase was assayed using a time-resolved fluorescence equilibrium binding assay monitoring displacement of a rapidly reversible Oregon Green-labeled ATP-competitive kinase probe (N-(2-(2-(2-(4-(4-(5-chloro-4-(2-(1-hydroxycyclobutyl)thiazol-5-yl)-1H-pyrrolo[2,3-b]pyridin-2-yl)phenyl)piperazin-1-yl)ethoxy)ethoxy)ethyl)-2′,7′-difluoro-3′,6′-dihydroxy-3-oxo-3H-spiro[isobenzofuran-1,9′-xanthene]-5-carboxamide) by competitive Wee1 inhibitors.
Table 1 depicts enzyme binding data (Ki)for exemplary compounds.

T1 sequence (P30291 whole entry): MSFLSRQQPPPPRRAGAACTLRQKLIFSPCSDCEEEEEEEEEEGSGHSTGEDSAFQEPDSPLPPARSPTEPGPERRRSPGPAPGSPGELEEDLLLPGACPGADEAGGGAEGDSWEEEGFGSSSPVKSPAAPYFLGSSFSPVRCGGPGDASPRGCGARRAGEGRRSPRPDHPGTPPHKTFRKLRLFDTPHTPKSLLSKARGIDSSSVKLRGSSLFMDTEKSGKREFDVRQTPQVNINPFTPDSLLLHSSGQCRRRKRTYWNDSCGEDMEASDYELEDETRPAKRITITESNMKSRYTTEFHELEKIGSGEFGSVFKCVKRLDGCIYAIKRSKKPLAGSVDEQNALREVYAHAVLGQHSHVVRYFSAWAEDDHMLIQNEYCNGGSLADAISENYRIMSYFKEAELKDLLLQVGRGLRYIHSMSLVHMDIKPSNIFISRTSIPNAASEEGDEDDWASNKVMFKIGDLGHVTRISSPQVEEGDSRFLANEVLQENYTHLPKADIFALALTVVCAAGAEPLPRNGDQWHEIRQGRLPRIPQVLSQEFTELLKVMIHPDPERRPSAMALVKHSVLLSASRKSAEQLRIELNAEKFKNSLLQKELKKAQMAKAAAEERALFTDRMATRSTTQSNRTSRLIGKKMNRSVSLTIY

| SMILES | Ki [nM] |
| --- | --- |
| Cc1cccc(Cl)c1-n1cc(C)c2nc(Nc3ccc(N4CCC(N(C)C)CC4)cc3)ncc2c1=O [Example 91, 6-(2-chloro-6-methylphenyl)-2-({4-[4-(dimethylamino)piperidin-1-yl]phenyl}amino)-8-methylpyrido[4,3-d]pyrimidin-5(6H)-one] | 0.22 |
| Cc1cn(-c2c(Cl)cccc2Cl)c(=O)c2cnc(Nc3ccc(SCCN(C)C)cc3)nc12 [Example 92, 6-(2,6-dichlorophenyl)-2-[(4-{[2-(dimethylamino)ethyl]sulfanyl}phenyl)amino]-8-methylpyrido[4,3-d]pyrimidin-5(6H)-one] | 0.378 |
| O=c1c2cnc(Nc3ccc4c(c3)CCNC4)nc2c(C(F)F)cn1-c1c(Cl)cccc1Cl [Example 93, 6-(2,6-dichlorophenyl)-8-(difluoromethyl)-2-(1,2,3,4-tetrahydroisoquinolin-6-ylamino)pyrido[4,3-d]pyrimidin-5(6H)-one] | 0.358 |
| CN1Cc2cc(Nc3ncc4c(=O)n(-c5c(Cl)cccc5Cl)cc(C(F)F)c4n3)ccc2C2(CC2)C1 [Example 94, 6-(2,6-dichlorophenyl)-8-(difluoromethyl)-2-[(2′-methyl-2′,3′-dihydro-1′H-spiro[cyclopropane-1,4′-isoquinolin]-7′-yl)amino]pyrido[4,3-d]pyrimidin-5(6H)-one] | 0.568 |
| O=c1c2cnc(Nc3ccc4c(c3)CC(N3CCCC3)C4)nc2c(C(F)F)cn1-c1c(Cl)cccc1Cl (stereo not shown) [Example 95, 6-(2,6-dichlorophenyl)-8-(difluoromethyl)-2-{[2-(pyrrolidin-1-yl)-2,3-dihydro-1H-inden-5-yl]amino}pyrido[4,3-d]pyrimidin-5(6H)-one] | 0.38 |
| Cc1cn(-c2c(Cl)cccc2Cl)c(=O)c2cnc(Nc3ccc(S(=O)(=O)CCN(C)C)cc3)nc12 [Example 96, 6-(2,6-dichlorophenyl)-2-[(4-{[2-(dimethylamino)ethyl]sulfonyl}phenyl)amino]-8-methylpyrido[4,3-d]pyrimidin-5(6H)-one] | 1.8 |
| Cc1cn(-c2cccc3cccnc23)c(=O)c2cnc(Nc3ccc4c(c3)CN(C)CC43CC3)nc12 [Example 97, 8-methyl-2-[(2′-methyl-2′,3′-dihydro-1′H-spiro[cyclopropane-1,4′-isoquinolin]-7′-yl)amino]-6-(quinolin-8-yl)pyrido[4,3-d]pyrimidin-5(6H)-one] | 28.2 |
| Cc1cn(-c2ccccc2Cl)c(=O)c2cnc(Nc3ccc4c(c3)CNCC4)nc12 [Example 98, 6-(2-chlorophenyl)-8-methyl-2-(1,2,3,4-tetrahydroisoquinolin-7-ylamino)pyrido[4,3-d]pyrimidin-5(6H)-one] | 0.5 |
| Cc1cn(-c2ccccc2Cl)c(=O)c2cnc(Nc3ccc(N4CCC(N(C)C)CC4)cc3)nc12 [Example 99, 6-(2-chlorophenyl)-2-({4-[4-(dimethylamino)piperidin-1-yl]phenyl}amino)-8-methylpyrido[4,3-d]pyrimidin-5(6H)-one] | 0.9 |
| Cc1cn(-c2cccc3ccccc23)c(=O)c2cnc(Nc3ccc4c(c3)CNCC4)nc12 [Example 100, 8-methyl-6-(naphthalen-1-yl)-2-(1,2,3,4-tetrahydroisoquinolin-7-ylamino)pyrido[4,3-d]pyrimidin-5(6H)-one] | 4.3 |
| Cc1cn(-c2cccc3ccccc23)c(=O)c2cnc(Nc3ccc(N4CCC(N(C)C)CC4)cc3)nc12 [Example 101, 2-({4-[4-(dimethylamino)piperidin-1-yl]phenyl}amino)-8-methyl-6-(naphthalen-1-yl)pyrido[4,3-d]pyrimidin-5(6H)-one] | 2.8 |
| Cc1cn(-c2cc(Cl)ccc2Cl)c(=O)c2cnc(Nc3ccc4c(c3)CNCC4)nc12 [Example 102, 6-(2,5-dichlorophenyl)-8-methyl-2-(1,2,3,4-tetrahydroisoquinolin-7-ylamino)pyrido[4,3-d]pyrimidin-5(6H)-one] | 17.8 |
| Cc1cccc(F)c1-n1cc(C)c2nc(Nc3ccc4c(c3)CNCC4)ncc2c1=O [Example 103, 6-(2-fluoro-6-methylphenyl)-8-methyl-2-(1,2,3,4-tetrahydroisoquinolin-7-ylamino)pyrido[4,3-d]pyrimidin-5(6H)-one] | 0.9 |
| Cc1cccc(F)c1-n1cc(C)c2nc(Nc3ccc(N4CCC(N(C)C)CC4)cc3)ncc2c1=O [Example 104, 2-({4-[4-(dimethylamino)piperidin-1-yl]phenyl}amino)-6-(2-fluoro-6-methylphenyl)-8-methylpyrido[4,3-d]pyrimidin-5(6H)-one] | 0.9 |
| Cc1cn(-c2ccccc2-c2cnco2)c(=O)c2cnc(Nc3ccc4c(c3)CNCC4)nc12 [Example 105, 8-methyl-6-[2-(1,3-oxazol-5-yl)phenyl]-2-(1,2,3,4-tetrahydroisoquinolin-7-ylamino)pyrido[4,3-d]pyrimidin-5(6H)-one] | 122 |
| Cc1cn(-c2ccccc2-c2cnco2)c(=O)c2cnc(Nc3ccc(N4CCC(N(C)C)CC4)cc3)nc12 [Example 106, 2-({4-[4-(dimethylamino)piperidin-1-yl]phenyl}amino)-8-methyl-6-[2-(1,3-oxazol-5-yl)phenyl]pyrido[4,3-d]pyrimidin-5(6H)-one] | 115 |

| SMILES | Ki [nM] |
| --- | --- |
| COC(=O)c1ccc(Cl)c(-n2cc(C)c3nc(Nc4ccc5c(c4)CNCC5)ncc3c2=O)c1 [Example 107, methyl 4-chloro-3-[8-methyl-5-oxo-2-(1,2,3,4-tetrahydroisoquinolin-7-ylamino)pyrido[4,3-d]pyrimidin-6(5H)-yl]benzoate] | 321 |
| COC(=O)c1ccc(Cl)c(-n2cc(C)c3nc(Nc4ccc(N5CCC(N(C)C)CC5)cc4)ncc3c2=O)c1 [Example 108, methyl 4-chloro-3-[2-({4-[4-(dimethylamino)piperidin-1-yl]phenyl}amino)-8-methyl-5-oxopyrido[4,3-d]pyrimidin-6(5H)-yl]benzoate] | 242 |
| O=c1c2cnc(Nc3ccc4c(c3)CNCC4)nc2c(CF)cn1-c1c(Cl)cccc1Cl [Example 109, 6-(2,6-dichlorophenyl)-8-(fluoromethyl)-2-(1,2,3,4-tetrahydroisoquinolin-7-ylamino)pyrido[4,3-d]pyrimidin-5(6H)-one] | 0.3 |
| O=c1c2cnc(Nc3ccc4c(c3)CCNC4)nc2c(CF)cn1-c1c(Cl)cccc1Cl [Example 110, 6-(2,6-dichlorophenyl)-8-(fluoromethyl)-2-(1,2,3,4-tetrahydroisoquinolin-6-ylamino)pyrido[4,3-d]pyrimidin-5(6H)-one] | 0.4 |
| CN(C)C1CCN(c2ccc(Nc3ncc4c(=O)n(-c5c(Cl)cccc5Cl)cc(CF)c4n3)cc2)CC1 [Example 111, 6-(2,6-dichlorophenyl)-2-({4-[4-(dimethylamino)piperidin-1-yl]phenyl}amino)-8-(fluoromethyl)pyrido[4,3-d]pyrimidin-5(6H)-one] | 0.2 |
| CN(C)C1Cc2ccc(Nc3ncc4c(=O)n(-c5c(Cl)cccc5Cl)cc(CF)c4n3)cc2C1 (stereo not shown) [Example 112, 6-(2,6-dichlorophenyl)-2-{[2-(dimethylamino)-2,3-dihydro-1H-inden-5-yl]amino}-8-(fluoromethyl)pyrido[4,3-d]pyrimidin-5(6H)-one] | 0.4 |
| CN1Cc2cc(Nc3ncc4c(=O)n(-c5c(Cl)cccc5Cl)cc(CF)c4n3)ccc2C2(CC2)C1 [Example 113, 6-(2,6-dichlorophenyl)-8-(fluoromethyl)-2-[(2′-methyl-2′,3′-dihydro-1′H-spiro[cyclopropane-1,4′-isoquinolin]-7′-yl)amino]pyrido[4,3-d]pyrimidin-5 (6H)-one] | 0.4 |
| CNC(=O)CSc1ccc(Nc2ncc3c(=O)n(-c4c(Cl)cccc4Cl)cc(C)c3n2)cc1 [Example 114, 2-[(4-{[6-(2,6-dichlorophenyl)-8-methyl-5-oxo-5,6-dihydropyrido[4,3-d]pyrimidin-2-yl]amino}phenyl)sulfanyl]-N-methylacetamide] | 0.8 |
| Cc1cn(-c2c(Cl)cccc2Cl)c(=O)c2cnc(Nc3ccc4c(c3)CN(C)C4(C)C)nc12 [Example 115, 6-(2,6-dichlorophenyl)-8-methyl-2-[(1,1,2-trimethyl-2,3-dihydro-1H-isoindol-5-yl)amino]pyrido[4,3-d]pyrimidin-5(6H)-one] | 0.2 |
| Cc1cn(-c2c(Cl)cccc2Cl)c(=O)c2cnc(Nc3ccc(NC4CCN(C)CC4)cc3)nc12 [Example 116, 6-(2,6-dichlorophenyl)-8-methyl-2-({4-[(1-methylpiperidin-4-yl)amino]phenyl}amino)pyrido[4,3-d]pyrimidin-5 (6H)-one] | 0.1 |
| Cc1cn(-c2ccccc2O)c(=O)c2cnc(Nc3ccc4c(c3)CNCC4)nc12 [Example 117, 6-(2-hydroxyphenyl)-8-methyl-2-(1,2,3,4-tetrahydroisoquinolin-7-ylamino)pyrido[4,3-d]pyrimidin-5(6H)-one] | 2 |
| Cc1cccc(O)c1-n1cc(C)c2nc(Nc3ccc4c(c3)CNCC4)ncc2c1=O [Example 118, 6-(2-hydroxy-6-methylphenyl)-8-methyl-2-(1,2,3,4-tetrahydroisoquinolin-7-ylamino)pyrido[4,3-d]pyrimidin-5(6H)-one] | 0.6 |
| Cc1nn(C)c(C)c1-n1cc(C)c2nc(Nc3ccc4c(c3)CNCC4)ncc2c1=O [Example 119, 8-methyl-2-(1,2,3,4-tetrahydroisoquinolin-7-ylamino)-6-(1,3,5-trimethyl-1H-pyrazol-4-yl)pyrido[4,3-d]pyrimidin-5(6H)-one] | 1.6 |
| CNC(=O)CS(=O)(=O)c1ccc(Nc2ncc3c(=O)n(-c4c(Cl)cccc4Cl)cc(C)c3n2)cc1 [Example 120, 2-[(4-{[6-(2,6-dichlorophenyl)-8-methyl-5-oxo-5,6-dihydropyrido[4,3-d]pyrimidin-2-yl]amino}phenyl)sulfonyl]-N-methylacetamide] | 0.3 |
| Cc1cn(-c2c(Cl)cccc2Cl)c(=O)c2cnc(Nc3ccc4c(c3)CNC4(C)C)nc12 [Example 121, 6-(2,6-dichlorophenyl)-2-[(1,1-dimethyl-2,3-dihydro-1H-isoindol-5-yl)amino]-8-methylpyrido[4,3-d]pyrimidin-5(6H)-one] | 0.1 |
